Data reported in patent publication US7932272B2, “Antifungal agent containing heterocyclic compound” (Eisai R&D Management Co., Ltd., priority 2003, dated 2011).
Values after ≈ are worked out from the molar mass of the structure shown.

Experiments:
[1] = tested on: C. albicans E81022 strain; assay: Anti-Candida activity (MIC measurement); type: cell-based; details: E81022STRAIN, MIC by visual inspection, C. albicans E81022, 48 hours at 30 to 35° C.
Method: (§1) For the C. albicans E81022 strain, a fungal suspension from a standing culture for 48 hours at 30° C. in a Sabouraud dextrose liquid culture medium (SDB) was diluted 10,000-fold with a 1.3-fold concentrated SDB to adjust to a fungal suspension of 1 to 2×10^4 cells/ml. For the A. fumigatus Tsukuba strain, −80° C. stored strain was diluted 1,000-fold with a 1.3-fold concentrated SDB to adjust to a fungal suspension of 2 to 3×10^3 cells/ml.
(§2) Using a U-bottomed 96 well plate, 8 samples/plate (A to H) of sample dilution solutions were prepared. On the 3rd row of each plate was dispensed 240 μl of sterilized and distilled water, and on the 2nd and 4th to 12th rows were dispensed 125 μl of 4% dimethylsulfoxide solution. Weighed sample was dissolved in dimethylsulfoxide to prepare a 2.5 to 20 mg/ml solution, 10 μl of this solution was then added to the 3rd row of the prepared plate, and 10 steps of two-fold step dilutions (125 μl of solution+125 μl of 4% dimethylsulfoxide) were performed on the plate.
(§3) The fungal suspension preprared in (1) was used in the amount of 75 μl/well to inoculate a V-bottomed or flat-bottomed 96 well plate containing 25 μl/well of test compound dilution solution prepared in (2), and a standing culture was carried out aerobically for 48 hours at 30 to 35° C.

[2] = tested on: A. fumigatus Tsukuba strain; assay: Anti-Aspergillus activity (MIC measurement); type: cell-based; details: MIC by visual inspection, 48 hours at 30 to 35° C.
Method: as §1, §2, §3

[3] = tested on: C. albicans E81022 strain; assay: Experimental systemic candida infection model in mice; type: in vivo, female ICR mice; details: C. albicans i.v. infection, 2.5 mg/kg peroral 3 times every 4 hours, observed until 14 days after infection
Method: A standing culture of C. albicans E81022 strain was carried out for 48 hours at 30° C. in Sabouraud dextrose agar medium (SDA), the recovered fungal cells were suspended in sterilized physiological saline. By counting the fungal number on a cytometry plate, the suspension was diluted to 2×10^7 cells/ml with sterilized physiological saline to serve as fungal inoculum.
The fungal inoculum was used in the amounts of 0.2 ml to inoculate 4.5 to 5.5 week-old female ICR mice in the tail vein (4×10^6 cells/mouse).
From 0.5 to 1 hour after fungal inoculation, 0.2 ml of agent solution (dissolved or suspended in sterilized physiological saline containing 6.5% dimethylsulfoxide and 3.5% Tween 80) was administered into the stomach using a peroral probe, 3 times every 4 hours. The agent concentration was 2.5 mg/kg, and the number of animals in one group was 5 animals.
(§4) The protective effect was determined by observing life/death until 14 days after infection and calculating the mean survival days.

[4] = tested on: A. fumigatus Tsukuba strain; assay: Experimental respiratory aspergillus infection model in mice; type: in vivo, female DBA/2N mice; details: 5-fluorouracil-treated mice, A. fumigatus nasal infection, 20 or 40 mg/kg peroral 3 times per day for 3 days, observed until 14 days after infection
Method: In order to increase susceptibility of the mice to infection, 200 mg/kg of 5-fluorouracil was administered subcutaneously 6 days prior to infection.
A. fumigatus Tsukuba strain was used.
A spore suspension of the infection strain was used to coat a potato dextrose agar medium (PDA), a standing culture was carried out for 4 to 7 days at 35° C., spore was then suspended in a sterilized physiological saline containing 0.05% Tween 80. By counting the pore count on a cytometry plate, the suspension was diluted to 6×10^5 cells/ml with sterilized physiological saline containing 0.05% Tween 80 to serve as fungal inoculum.
Under ketalar anesthesia, 50 μl of fungal inoculum was used to inoculate 8 to 9 week-old female DBA/2N mice in the nose (3×10^4 cells/mouse).
From 1 hour after fungal inoculation, 0.2 ml of agent solution (dissolved or suspended in sterilized physiological saline containing 6.5% DMSO and 3.5% Tween 80), was administered into the stomach using a peroral probe 3 times per day for 3 days. The agent dosage was from 20 or 40 mg/kg, and the number of animals in one group was 5 animals.
as §4

Row | Structure (SMILES) | MIC [1] | MIC [2] | Mean Survival Days [3] | Mean Survival Days [4]
1 | O=C(NCc1ccc(Oc2ccccc2)s1)c1cnc2[nH]ccc2c1 [Example R-1, 1H-Pyrrolo[2,3-b]pyridine-5-carboxylic acid (5-phenoxy-thiophen-2-ylmethyl)-amide] | 0.39 µg/mL (≈ 1.12 µM) | 3.13 µg/mL (≈ 8.96 µM) | 10.4 days | –
2 | O=C(NCc1ccc(Oc2cccc(F)c2)s1)c1ccc2ncccc2c1 [Example E-65, Quinoline-6-carboxylic acid (5-(3-fluorophenoxy)thiophen-2-ylmethyl) amide] | 0.1 µg/mL (≈ 0.264 µM) | 1.56 µg/mL (≈ 4.12 µM) | 11.6 days | –
3 | Nc1ccc(C(=O)NCc2ccc(Cc3ccccc3)s2)c(N)n1 [Example A-55, 2,6-Diamino-N-(5-benzyl-thiophen-2-ylmethyl)-nicotinamide] | – | – | – | 12.6 days
4 | Nc1ccc(C(=O)NCc2ccc(OCc3ccccc3)cc2)c(N)n1 [Example A-10, 2,6-Diamino-N-(4-benzyloxy-benzyl)-nicotinamide] | 0.78 µg/mL (≈ 2.24 µM) | 1.56 µg/mL (≈ 4.48 µM) | 12.5 days | –
5 | COCc1ccc(C(=O)NCc2ccc(OCc3ccc(F)cc3)cc2)c(N)n1 [Example A-32, 2-Amino-N-(4-(4-fluoro-benzyloxy)-benzyl)-6-methoxymethyl-nicotinamide] | – | – | – | 11.8 days
6 | Nc1ccc(C(=O)NCc2ccc(Oc3ccc(F)cc3)s2)c(N)n1 [Example A-53, 2,6-Diamino-N-(5-(4-fluoro-phenoxy)-thiophen-2-ylmethyl)-nicotinamide] | 0.39 µg/mL (≈ 1.09 µM) | 0.78 µg/mL (≈ 2.18 µM) | 13.4 days | –
7 | Nc1ncccc1C(=O)NCc1ccc(Cc2ccccc2)s1 [Example A-70, 2-Amino-N-(5-benzyl-thiophen-2-ylmethyl)-nicotinamide] | 0.05 µg/mL (≈ 0.155 µM) | 0.78 µg/mL (≈ 2.41 µM) | 12.6 days | –
8 | Nc1ccc(C(=O)NCc2ccc(Oc3ccccc3)s2)c(N)n1 [Example A-54, 2,6-diamino-N-(5-phenoxy-thiophene-2-ylmethyl)-nicotinamide] | 0.78 µg/mL (≈ 2.29 µM) | 1.56 µg/mL (≈ 4.58 µM) | 10.0 days | –
9 | Nc1ncccc1C(=O)NCc1ccc(Oc2cccc(F)c2)s1 [Example A-68, 2-Amino-N-(5-(3-fluoro-phenoxy)-thiophen-2-ylmethyl)-nicotinamide] | 0.05 µg/mL (≈ 0.146 µM) | 0.78 µg/mL (≈ 2.27 µM) | 10.6 days | –
10 | Nc1ccc(C(=O)NCc2ccc(OCc3ccccc3)s2)c(N)n1 [Example A-56, 2,6-Diamino-N-(5-benzyloxy-thiophen-2-ylmethyl)-nicotinamide] | – | – | – | 10.8 days
11 | COCc1ccc(C(=O)NCc2ccc(OCc3ccccn3)cc2)c(N)n1 [Example A-31, 2-Amino-6-methoxymethyl-N-(4-(pyridin-2-ylmethoxy)-benzyl)-nicotinamide] | – | – | – | 11.2 days
12 | O=C(NCc1ccn(Cc2cccc(F)c2)c1)c1ccc2ncccc2n1 [Example D-4, [1,5]Naphthylidine-2-carboxylic acid (1-(3-fluoro-benzyl)-1H-pyrrol-3-ylmethyl)-amide] | – | – | – | 10.8 days
13 | Nc1ccc(C(=O)NCc2ccc(Oc3cccc(F)c3)s2)cn1 [Example A-137, 6-Amino-N-(5-(3-fluorophenoxy)thiophen-2-ylmethyl)nicotinamide] | 1.56 µg/mL (≈ 4.54 µM) | – | 12.8 days | –
14 | Nc1nc(NCc2ccccc2)ccc1C(=O)NCc1ccc(Oc2ccccc2)s1 [Example A-126, 2-Amino-6-benzylamino-N-(5-phenoxy-thiophen-2-ylmethyl)-nicotinamide] | 0.78 µg/mL (≈ 1.81 µM) | 6.25 µg/mL (≈ 14.5 µM) | – | –
15 | c1ccc(COc2ccc(NCc3ccc4ncccc4c3)cc2)cc1 [Example W-1, (4-Benzyloxy-phenyl)-quinolin-6-ylmethyl-amine] | 0.39 µg/mL (≈ 1.15 µM) | 0.78 µg/mL (≈ 2.29 µM) | – | –
16 | COc1ccc(C(=O)NCc2ccc(Oc3ccccc3)s2)c(N)n1 [Example A-116, 2-Amino-6-methoxy-N-(5-phenoxy-thiophen-2-ylmethyl)-nicotinamide] | 0.39 µg/mL (≈ 1.1 µM) | 3.13 µg/mL (≈ 8.81 µM) | – | –
17 | CC(=O)c1ccc(C(=O)NCc2ccc(Oc3ccccc3)s2)c(N)n1 [Example A-98, 6-Acetyl-2-amino-N-(5-phenoxy-thiophen-2-ylmethyl)-nicotinamide] | 0.39 µg/mL (≈ 1.06 µM) | 1.56 µg/mL (≈ 4.25 µM) | – | –
18 | Nc1ncccc1C(=S)NCc1ccc(OCc2ccccc2)cc1 [Example A-22, 2-Amino-N-(4-benzyloxy-benzyl)-thionicotinamide] | 0.78 µg/mL (≈ 2.23 µM) | 3.13 µg/mL (≈ 8.96 µM) | – | –
19 | O=C(NCc1ccc(Cc2cccc(Cl)c2)s1)c1ccc2ncccc2c1 [Example E-71, Quinoline-6-carboxylic acid (5-(3-chlorobenzyl)-thiophen-2-ylmethyl)-amide] | 0.2 µg/mL (≈ 0.509 µM) | 1.56 µg/mL (≈ 3.97 µM) | – | –
20 | Nc1ccc(C(=O)NCc2ccc(OCc3ccccc3)cc2)cn1 [Example A-39, 6-Amino-N-(4-benzyloxybenzyl)-nicotinamide] | 1.56 µg/mL (≈ 4.68 µM) | 1.56 µg/mL (≈ 4.68 µM) | – | –
21 | Nc1ccc(C(=O)NCc2ccc(OCc3ccccc3F)cc2)c(N)n1 [Example A-11, 2,6-Diamino-N-(4-(2-fluoro-benzyloxy)-benzyl)-nicotinamide] | – | – | – | 10.4 days
22 | O=C(NCc1ccc(Oc2ccc(F)cc2)s1)c1ccc2ncccc2n1 [Example D-7, [1,5]Naphthylidine-2-carboxylic acid (5-(4-fluoro-phenoxy)-thiophen-2-ylmethyl)-amide] | – | – | – | 10.6 days
23 | Nc1ncccc1C(=O)NCc1cc(Cl)c(Oc2ccccc2)s1 [Example A-171, 2-Amino-N-(4-chloro-5-phenoxy-thiophen-2-ylmethyl)-nicotinamide] | 0.2 µg/mL (≈ 0.556 µM) | 1.56 µg/mL (≈ 4.34 µM) | – | –
24 | O=C(NCc1ccc(OCc2ccccc2)cc1F)c1ccc2ncccc2c1 [Example E-53, Quinoline-6-carboxylic acid 4-benzyloxy-2-fluoro-benzalamide] | 1.56 µg/mL (≈ 4.04 µM) | 3.13 µg/mL (≈ 8.1 µM) | – | –
25 | O=C(NCc1ccc(Oc2ccc(F)cc2)s1)c1ccc2ncccc2c1 [Example E-67, Quinoline-6-carboxylic acid (5-(4-fluorophenoxy)thiophen-2-yl)methyl amide] | 0.39 µg/mL (≈ 1.03 µM) | 0.78 µg/mL (≈ 2.06 µM) | – | –
